The assay deals with Tie-2 (Homo sapiens, UniProt Q02763). Description: Tie-2 tyrosine kinase activity: kinase-dependent ATP consumption (pEY substrate, luciferase/luciferin chemiluminescence) or 33P-ATP incorporation into substrate. It is filed as biochemical. As to conditions: Tie-2 (human enzyme) inhibition, Table 2, class symbols A-D. The method, then:
One measure of inhibition is Ki. […] The Ki for a compound is determined from the IC50 based on three assumptions. First, only one compound molecule binds to the enzyme and there is no cooperativity. […] Third, the enzymatic rate of the enzyme-inhibitor complex is zero. The rate (i.e., compound concentration) data are fitted to the equation:
[formula] where V is the observed rate, Vmax, is the rate of the free enzyme, I0 is the inhibitor concentration, E0 is the enzyme concentration, and Kd is the dissociation constant of the enzyme-inhibitor complex.
Tyrosine kinase activity is determined by 1) measurement of kinase-dependent ATP consumption by in the presence of a generic substrate such as polyglutamine, tyrosine (pEY), by luciferase/luciferin-mediated chemiluminescence or; 2) incorporation of radioactive phosphate derived from ^33P-ATP into a generic substrate which has been absorbed onto the well surface of polystyrene microtiter plates. Phosphorylated substrate products are quantified by scintillation spectrometry.
Inhibition is indicated as IC50 with following key: A=IC50 less than 50 nM, B=IC50 greater than 50 nM, but less than or equal to 1000 nM, C=IC50 greater than 1000 nM, but less than 10,000 nM, and D=IC50 10,000 nM or greater. The abbreviation for human enzyme, Tie-2, is defined as tyrosine kinase with immunoglobulin and EGF repeats.
Tie-2, sequence (Q02763 23-1124): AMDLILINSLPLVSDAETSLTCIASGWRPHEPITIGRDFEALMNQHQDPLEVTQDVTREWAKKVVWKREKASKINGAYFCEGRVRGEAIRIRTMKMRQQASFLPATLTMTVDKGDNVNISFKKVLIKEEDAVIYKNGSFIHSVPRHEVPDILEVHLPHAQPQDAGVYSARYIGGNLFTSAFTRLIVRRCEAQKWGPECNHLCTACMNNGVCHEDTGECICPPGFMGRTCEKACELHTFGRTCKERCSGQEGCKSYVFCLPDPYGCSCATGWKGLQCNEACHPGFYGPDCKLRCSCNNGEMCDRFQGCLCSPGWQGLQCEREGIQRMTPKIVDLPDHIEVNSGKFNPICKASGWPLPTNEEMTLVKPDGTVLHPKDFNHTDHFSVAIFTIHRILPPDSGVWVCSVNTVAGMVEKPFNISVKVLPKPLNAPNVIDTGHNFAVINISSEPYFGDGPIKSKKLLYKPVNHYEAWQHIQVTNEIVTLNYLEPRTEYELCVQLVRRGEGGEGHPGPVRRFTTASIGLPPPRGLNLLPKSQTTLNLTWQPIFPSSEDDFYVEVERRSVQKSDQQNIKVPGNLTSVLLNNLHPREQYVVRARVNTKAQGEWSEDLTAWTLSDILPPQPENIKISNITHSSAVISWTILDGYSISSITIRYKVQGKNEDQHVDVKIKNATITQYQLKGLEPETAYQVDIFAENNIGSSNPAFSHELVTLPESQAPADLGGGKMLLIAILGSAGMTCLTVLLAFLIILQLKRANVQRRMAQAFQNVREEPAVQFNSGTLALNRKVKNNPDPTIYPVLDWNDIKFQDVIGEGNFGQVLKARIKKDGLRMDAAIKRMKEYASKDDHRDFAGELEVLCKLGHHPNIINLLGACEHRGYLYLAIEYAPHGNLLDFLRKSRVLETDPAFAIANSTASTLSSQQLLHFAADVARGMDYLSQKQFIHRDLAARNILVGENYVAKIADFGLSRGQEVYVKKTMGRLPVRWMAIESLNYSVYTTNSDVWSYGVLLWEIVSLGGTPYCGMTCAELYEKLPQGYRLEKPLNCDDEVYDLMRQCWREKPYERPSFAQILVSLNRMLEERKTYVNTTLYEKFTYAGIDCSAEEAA
Consider `COc1ccc(-c2nc(-c3ccncc3)[nH]c2CCN(C(=O)Cc2cccc3ccccc23)C2CCCC2)cc1` [Entry 54, N-cyclopentyl-N-(2-{4-[4-(methyloxy)phenyl]-2-pyridin-4-yl-1H-imidazol-5-yl}ethyl)-2-naphthalen-1-ylacetamide], for which the IC50 was in the range of 50 to 1000 nM.
The value for `COc1ccc(-c2nc(-c3ccncc3)n(CCN(C(=O)Nc3cccc4ccccc34)C3CCCC3)n2)cc1Cl` [Entry 55, N-(2-{3-[3-chloro-4-(methyloxy)phenyl]-5-pyridin-4-yl-1H-1,2,4-triazol-1-yl}ethyl)-N-cyclopentyl-N′-naphthalen-1-ylurea] was at least 10000 nM; that for `O=C(Cc1cccc2ccccc12)N(CCn1nc(-c2ccncc2)nc1-c1cccc(F)c1)C1CCCC1` [Entry 56, N-cyclopentyl-N-{2-[5-(3-fluorophenyl)-3-pyridin-4-yl-1H-1,2,4-triazol-1-yl]ethyl}-2-naphthalen-1-ylacetamide] was under 50 nM.
The molecule `O=C(Cc1cccc2ccccc12)N(CCn1nc(-c2cccc(F)c2)nc1-c1ccncc1)C1CCCC1` [Entry 57, N-cyclopentyl-N-{2-[3-(3-fluorophenyl)-5-pyridin-4-yl-1H-1,2,4-triazol-1-yl]ethyl}-2-naphthalen-1-ylacetamide] gave an IC50 of 1000 to 10000 nM.
The value for `O=C(Cc1cccc2ccccc12)N(CCn1nc(-c2ccncc2)nc1-c1cccc(Cl)c1)C1CCCC1` [Entry 58, N-{2-[5-(3-chlorophenyl)-3-pyridin-4-yl-1H-1,2,4-triazol-1-yl]ethyl}-N-cyclopentyl-2-naphthalen-1-ylacetamide] was under 50 nM; that for `O=C(Cc1cccc2ccccc12)N(CCn1nc(-c2cccc(Cl)c2)nc1-c1ccncc1)C1CCCC1` [Entry 59, N-{2-[3-(3-chlorophenyl)-5-pyridin-4-yl-1H-1,2,4-triazol-1-yl]ethyl}-N-cyclopentyl-2-naphthalen-1-ylacetamide] was 1000 to 10000 nM.
`O=C(Cc1cccc2ccccc12)N(CCn1nc(-c2ccncc2)nc1C1CCNCC1)C1CCCC1` [Entry 60, N-cyclopentyl-2-naphthalen-1-yl-N-[2-(5-piperidin-4-yl-3-pyridin-4-yl-1H-1,2,4-triazol-1-yl)ethyl]acetamide] registered an IC50 of under 50 nM.
The value for `O=C(Cc1cccc2ccccc12)N(CCn1nc(-c2ccncc2)nc1-c1ccccc1Cl)C1CCCC1` [Entry 61, N-{2-[5-(2-chlorophenyl)-3-pyridin-4-yl-1H-1,2,4-triazol-1-yl]ethyl}-N-cyclopentyl-2-naphthalen-1-ylacetamide] was under 50 nM; that for `O=C(Cc1cccc2ccccc12)N(CCn1nc(-c2ccccc2Cl)nc1-c1ccncc1)C1CCCC1` [Entry 62, N-{2-[3-(2-chlorophenyl)-5-pyridin-4-yl-1H-1,2,4-triazol-1-yl]ethyl}-N-cyclopentyl-2-naphthalen-1-ylacetamide] was 1000 to 10000 nM; that for `O=C(Cc1cccc2ccccc12)N(CCn1nc(-c2ccncc2)nc1-c1ccc2c(c1)OCO2)C1CCCC1` [Entry 63, N-{2-[5-(1,3-benzodioxol-5-yl)-3-pyridin-4-yl-1H-1,2,4-triazol-1-yl]ethyl}-N-cyclopentyl-2-naphthalen-1-ylacetamide] was under 50 nM.
The value for `O=C(Cc1cccc2ccccc12)N(CCn1nc(-c2ccc3c(c2)OCO3)nc1-c1ccncc1)C1CCCC1` [Entry 64, N-{2-[3-(1,3-benzodioxol-5-yl)-5-pyridin-4-yl-1H-1,2,4-triazol-1-yl]ethyl}-N-cyclopentyl-2-naphthalen-1-ylacetamide] was 1000 to 10000 nM; that for `O=C(Cc1cccc2ccccc12)N(CCn1nc(-c2ccncc2)nc1-c1cccc(Br)c1)C1CCCC1` [Entry 65, N-{2-[5-(3-bromophenyl)-3-pyridin-4-yl-1H-1,2,4-triazol-1-yl]ethyl}-N-cyclopentyl-2-naphthalen-1-ylacetamide] was under 50 nM.
The value for `O=C(Cc1cccc2ccccc12)N(CCn1nc(-c2cccc(Br)c2)nc1-c1ccncc1)C1CCCC1` [Entry 66, N-{2-[3-(3-bromophenyl)-5-pyridin-4-yl-1H-1,2,4-triazol-1-yl]ethyl}-N-cyclopentyl-2-naphthalen-1-ylacetamide] was at least 10000 nM.
With `O=C(Cc1cccc2ccccc12)N(CCn1nc(-c2ccncc2)nc1-c1ccc(Br)cc1)C1CCCC1` [Entry 67, N-{2-[5-(4-bromophenyl)-3-pyridin-4-yl-1H-1,2,4-triazol-1-yl]ethyl}-N-cyclopentyl-2-naphthalen-1-ylacetamide], the IC50 was under 50 nM.
For `O=C(Cc1cccc2ccccc12)N(CCn1nc(-c2ccc(Br)cc2)nc1-c1ccncc1)C1CCCC1` [Entry 68, N-{2-[3-(4-bromophenyl)-5-pyridin-4-yl-1H-1,2,4-triazol-1-yl]ethyl}-N-cyclopentyl-2-naphthalen-1-ylacetamide], the IC50 is under 50 nM.
Turning to `Cc1nc(-c2ccnnc2)nn1CCN(C(=O)Cc1cccc2ccccc12)C1CCCC1` [Entry 69, N-cyclopentyl-N-[2-(5-methyl-3-pyridazin-4-yl-1H-1,2,4-triazol-1-yl)ethyl]-2-naphthalen-1-ylacetamide], the IC50 was in the range of 50 to 1000 nM.
The value for `Cc1ccc(-c2nc(-c3ccncc3)nn2CCN(C(=O)Cc2cccc3ccccc23)C2CCCC2)cc1` [Entry 70, N-cyclopentyl-N-{2-[5-(4-methylphenyl)-3-pyridin-4-yl-1H-1,2,4-triazol-1-yl]ethyl}-2-naphthalen-1-ylacetamide] was under 50 nM; that for `Cc1ccc(-c2nc(-c3ccncc3)n(CCN(C(=O)Cc3cccc4ccccc34)C3CCCC3)n2)cc1` [Entry 71, N-cyclopentyl-N-{2-[3-(4-methylphenyl)-5-pyridin-4-yl-1H-1,2,4-triazol-1-yl]ethyl}-2-naphthalen-1-ylacetamide] was 1000 to 10000 nM.
The value for `Cc1cccc(-c2nc(-c3ccncc3)nn2CCN(C(=O)Cc2cccc3ccccc23)C2CCCC2)c1` [Entry 72, N-cyclopentyl-N-{2-[5-(3-methylphenyl)-3-pyridin-4-yl-1H-1,2,4-triazol-1-yl]ethyl}-2-naphthalen-1-ylacetamide] was under 50 nM; that for `Cc1cccc(-c2nc(-c3ccncc3)n(CCN(C(=O)Cc3cccc4ccccc34)C3CCCC3)n2)c1` [Entry 73, N-cyclopentyl-N-{2-[3-(3-methylphenyl)-5-pyridin-4-yl-1H-1,2,4-triazol-1-yl]ethyl}-2-naphthalen-1-ylacetamide] was 1000 to 10000 nM.
The value for `O=C(Cc1cccc2ccccc12)N(CCn1nc(-c2ccncc2)nc1-c1ccc(Cl)cc1Cl)C1CCCC1` [Entry 74, N-cyclopentyl-N-{2-[5-(2,4-dichlorophenyl)-3-pyridin-4-yl-1H-1,2,4-triazol-1-yl]ethyl}-2-naphthalen-1-ylacetamide] was under 50 nM; that for `O=C(Cc1cccc2ccccc12)N(CCn1nc(-c2ccc(Cl)cc2Cl)nc1-c1ccncc1)C1CCCC1` [Entry 75, N-cyclopentyl-N-{2-[3-(2,4-dichlorophenyl)-5-pyridin-4-yl-1H-1,2,4-triazol-1-yl]ethyl}-2-naphthalen-1-ylacetamide] was 1000 to 10000 nM.
In turn, `O=C(Cc1cccc2ccccc12)N(CCn1nc(-c2ccncc2)nc1-c1ccc(C(F)(F)F)cc1)C1CCCC1` [Entry 76, N-cyclopentyl-2-naphthalen-1-yl-N-(2-{3-pyridin-4-yl-5-[4-(trifluoromethyl)phenyl]-1H-1,2,4-triazol-1-yl}ethyl)acetamide] had an IC50 of under 50 nM.
The value for `O=C(Cc1cccc2ccccc12)N(CCn1nc(-c2ccc(C(F)(F)F)cc2)nc1-c1ccncc1)C1CCCC1` [Entry 77, N-cyclopentyl-2-naphthalen-1-yl-N-(2-{5-pyridin-4-yl-3-[4-(trifluoromethyl)phenyl]-1H-1,2,4-triazol-1-yl}ethyl)acetamide] was at least 10000 nM.
Molecule `COc1ccc(-c2nc(-c3ccncc3)nn2CCN(C(=O)Cc2cccc3ccccc23)C2CC2)cc1Cl` [Entry 78, N-(2-{5-[3-chloro-4-(methyloxy)phenyl]-3-pyridin-4-yl-1H-1,2,4-triazol-1-yl}ethyl)-N-cyclopropyl-2-naphthalen-1-ylacetamide] registered an IC50 of under 50 nM.
The value for `COc1ccc(-c2nc(-c3ccncc3)nn2CCN(C(=O)Cc2cccc3ccccc23)C(C)C)cc1Cl` [Entry 79, N-(2-{5-[3-chloro-4-(methyloxy)phenyl]-3-pyridin-4-yl-1H-1,2,4-triazol-1-yl}ethyl)-N-(1-methylethyl)-2-naphthalen-1-ylacetamide] was at least 10000 nM; that for `CCc1nc(-c2ccncc2)nn1CCN(C(=O)Cc1cccc2ccccc12)C1CCCC1` [Entry 80, N-cyclopentyl-N-[2-(5-ethyl-3-pyridin-4-yl-1H-1,2,4-triazol-1-yl)ethyl]-2-naphthalen-1-ylacetamide] was under 50 nM.
The value for `COc1ccc(-c2nc(-c3ccncc3)nn2CCN(C(=O)Cc2cccc3ccccc23)C2CCN(C)CC2)cc1Cl` [Entry 81, N-(2-{5-[3-chloro-4-(methyloxy)phenyl]-3-pyridin-4-yl-1H-1,2,4-triazol-1-yl}ethyl)-N-(1-methylpiperidin-4-yl)-2-naphthalen-1-ylacetamide] was at least 10000 nM; that for `COc1ccc(-c2nc(-c3ccncc3)nn2CCN(C(=O)N[C@@H]2C[C@H]2c2ccccc2)C2CCCC2)cc1Cl` [Entry 82, N-(2-{5-[3-chloro-4-(methyloxy)phenyl]-3-pyridin-4-yl-1H-1,2,4-triazol-1-yl}ethyl)-N-cyclopentyl-N′-[(1R,2S)-2-phenylcyclopropyl]urea] was 1000 to 10000 nM.

As usually defined, the IC50 is the point on the concentration scale where inhibition reaches its midpoint. Read a high IC50 as weaker potency.

Source of the values: US8178570B2, “Tie-2 modulators and methods of use” (Exelixis, Inc., priority 2003, dated 2012).
